We go through ten molecules from paper PMC6271941, “Ruthenium^II(η^6-arene) Complexes of Thiourea Derivatives: Synthesis, Characterization and Urease Inhibition” (Molecules, 2014).

The target of one assay is jack bean urease (Canavalia ensiformis, UniProt P07374). Description: biochemical.
Sequence of jack bean urease (P07374 whole entry, looked up): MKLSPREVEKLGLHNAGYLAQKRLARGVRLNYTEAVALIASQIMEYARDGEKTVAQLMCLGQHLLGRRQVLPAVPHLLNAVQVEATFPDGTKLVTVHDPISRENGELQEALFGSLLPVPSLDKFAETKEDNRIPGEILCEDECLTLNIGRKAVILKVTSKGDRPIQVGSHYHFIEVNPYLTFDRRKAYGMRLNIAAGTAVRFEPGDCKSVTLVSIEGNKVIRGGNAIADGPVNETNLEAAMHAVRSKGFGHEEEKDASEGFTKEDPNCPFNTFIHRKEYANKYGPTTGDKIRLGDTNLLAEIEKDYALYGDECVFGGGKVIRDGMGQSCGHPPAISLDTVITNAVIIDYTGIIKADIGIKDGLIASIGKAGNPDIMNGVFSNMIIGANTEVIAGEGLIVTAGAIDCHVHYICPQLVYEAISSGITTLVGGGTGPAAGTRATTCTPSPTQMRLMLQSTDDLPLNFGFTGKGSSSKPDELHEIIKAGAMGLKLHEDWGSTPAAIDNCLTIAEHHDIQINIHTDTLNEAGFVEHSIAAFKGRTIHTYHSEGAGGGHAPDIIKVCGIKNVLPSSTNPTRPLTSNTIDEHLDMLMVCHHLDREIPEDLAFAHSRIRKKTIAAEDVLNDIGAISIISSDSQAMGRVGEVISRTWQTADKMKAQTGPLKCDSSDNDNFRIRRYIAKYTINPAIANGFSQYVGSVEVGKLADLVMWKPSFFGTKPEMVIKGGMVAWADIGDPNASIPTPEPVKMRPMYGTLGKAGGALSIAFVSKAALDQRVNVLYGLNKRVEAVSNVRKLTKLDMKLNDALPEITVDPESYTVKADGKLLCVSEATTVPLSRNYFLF
Conditions: not given
In kind it is biochemical. The protocol: The urease inhibitory activity was measured according to a reported method with slight modifications. The enzyme (5 U/mL; 10 μL) and test compound in buffer (10 μL) were sequentially added to 40 μL of buffer (pH 8.2) containing 100 mM urea, 1 mM EDTA, 0.01 M K2HPO4 and 0.01 M […]. The mixture was pre-incubated for 30 min at 37 °C. The reaction was initiated by the addition of 40 μL of phenol reagent (1%, w/v phenol, 0.005%, w/v sodium nitroprusside) and 40 μL of alkali reagent (0.5%, w/v NaOH, 0.1% active chloride NaOCl) to each well. After 10 min of incubation at 37 °C, the absorbance was measured at 630 nm using a Microplate reader (Bio-Tek ELx 800^TM, Instruments, Inc. USA). All the experiments were carried out with their respective controls in triplicate. Thiourea (0.1 mM well^−1) was used as a positive control.
As usually defined, the IC50 is the concentration at which inhibition is half-maximal. As for `S=C1NCCN1` [I, imidazolidine-2-thione], half-maximal inhibition (IC50) required 232 ± 27 µM.

In turn, `S=C1NCCCN1` [II, 1,3-diazinane-2-thione] yielded a half-maximal inhibitory concentration (IC50) of 118 ± 13 µM.

Still in this assay, the particulars now being: enzyme 5 U/mL, 100 mM urea, buffer pH 8.2, 30 min pre-incubation at 37 °C, absorbance at 630 nm, triplicate; read-out: Inhibitory activity IC50 against jack bean urease.
Consider `NC(N)=S` [Thiourea], for which the IC50 was found to be 22.1 ± 1.4 µM.

For “[Chlorido(η^6-p-cymene)(1,3-diazinane-2-thione)(triphenylphosphine)ruthenium(II)] hexafluoro-phosphate [Compound 12]”, the IC50 is above 600 µM.

As for “[Chlorido(η^6-p-cymene)(1H-benzo[d]imidazole-2(3H)-thione)(triphenylphosphine)ruthenium(II)] hexafluorophosphate [Compound 13]”, the IC50 was above 600 µM.

For “[Chlorido(η^6-p-cymene)(imidazolidine-2-thione)(triphenylphosphine)ruthenium(II)] hexafluoro-phosphate [Compound 11]”, the IC50 was above 600 µM.

Regarding “[Dichlorido(1,3-diazinane-2-thione)(η^6-p-cymene)ruthenium(II)] [Compound 7]”, the concentration for half-maximal inhibition (IC50) was above 600 µM.

Consider “[Dichlorido(1H-benzo[d]imidazole-2(3H)-thione)(η^6-p-cymene)ruthenium(II)] [Compound 8]”, for which the 50% inhibitory concentration (IC50) was above 600 µM.

In the case of “[Dichlorido(imidazolidine-2-thione)(η^6-biphenyl)ruthenium(II)] [Compound 10]”, the IC50 was above 600 µM.

“[Dichlorido(imidazolidine-2-thione)(η^6-toluene)ruthenium(II)] [Compound 9]”: the IC50 was above 600 µM.

Still in this assay, the particulars now being: jack bean urease; compared to thiourea as positive control.
`S=C1NCCCN1` [II, 1,3-diazinane-2-thione]: the “urease inhibitory activity (in words)” value was “most active in the tested series”.

The assay is the same for the next values; noted with them: jack bean urease; thiourea vs II.
For the molecule `NC(N)=S` [Thiourea], the “fold more active than compound II (IC50 ratio)” value was “more than 5 times”.
